Laboratory results reported in the NIST ThermoML archive (doi:10.1021/je500381c).

Assay: xn = mol fraction of the nth substance listed
Conditions: for mass density / viscosity: 100 kPa, Liquid; for mass density: Vibrating tube method; for surface tension liquid-gas: Drop volume

CCC12CC3CC(CC(C3)C1)C2 [1-ethyladamantane] + CCCCCCCO
Conditions | mass density [kg/m3] | surface tension liquid-gas [mN/m] | viscosity [mPa·s]
293.15 K, x2 = 0 | 937.11 | – | 6.371
293.15 K, x2 = 0.0999 | 927.59 | – | 5.91
293.15 K, x2 = 0.1999 | 917.88 | – | 5.707
293.15 K, x2 = 0.2988 | 907.92 | – | 5.62
293.15 K, x2 = 0.3991 | 897.36 | – | 5.584
293.15 K, x2 = 0.4998 | 886.28 | – | 5.647
293.15 K, x2 = 0.5995 | 874.78 | – | 5.843
293.15 K, x2 = 0.7 | 862.6 | – | 6.077
293.15 K, x2 = 0.8002 | 849.85 | – | 6.41
293.15 K, x2 = 0.9 | 836.45 | – | 6.719
298.15 K, x2 = 0 | 933.58 | 29.87 | 5.565
298.15 K, x2 = 0.0999 | 924.02 | 29.66 | 5.136
298.15 K, x2 = 0.1999 | 914.26 | 29.21 | 4.958
298.15 K, x2 = 0.2988 | 904.28 | 28.87 | 4.86
298.15 K, x2 = 0.3991 | 893.7 | 28.72 | 4.836
298.15 K, x2 = 0.4998 | 882.65 | 28.42 | 4.859
298.15 K, x2 = 0.5995 | 871.16 | 28.1 | 4.989
298.15 K, x2 = 0.7 | 859.01 | 27.75 | 5.156
298.15 K, x2 = 0.8002 | 846.29 | 27.23 | 5.422
298.15 K, x2 = 0.9 | 832.93 | 26.74 | 5.683
303.15 K, x2 = 0 | 929.99 | – | 4.903
303.15 K, x2 = 0.0999 | 920.37 | – | 4.506
303.15 K, x2 = 0.1999 | 910.61 | – | 4.337
303.15 K, x2 = 0.2988 | 900.6 | – | 4.238
303.15 K, x2 = 0.3991 | 890.03 | – | 4.215
303.15 K, x2 = 0.4998 | 878.99 | – | 4.215
303.15 K, x2 = 0.5995 | 867.51 | – | 4.306
303.15 K, x2 = 0.7 | 855.39 | – | 4.424
303.15 K, x2 = 0.8002 | 842.7 | – | 4.63
303.15 K, x2 = 0.9 | 829.37 | – | 4.841
308.15 K, x2 = 0 | 926.4 | – | 4.348
308.15 K, x2 = 0.0999 | 916.7 | – | 3.965
308.15 K, x2 = 0.1999 | 906.92 | – | 3.814
308.15 K, x2 = 0.2988 | 896.92 | – | 3.722
308.15 K, x2 = 0.3991 | 886.35 | – | 3.692
308.15 K, x2 = 0.4998 | 875.31 | – | 3.681
308.15 K, x2 = 0.5995 | 863.84 | – | 3.742
308.15 K, x2 = 0.7 | 851.75 | – | 3.824
308.15 K, x2 = 0.8002 | 839.08 | – | 3.985
308.15 K, x2 = 0.9 | 825.79 | – | 4.154
313.15 K, x2 = 0 | 922.81 | – | 3.878
313.15 K, x2 = 0.0999 | 913.02 | – | 3.516
313.15 K, x2 = 0.1999 | 903.22 | – | 3.376
313.15 K, x2 = 0.2988 | 893.21 | – | 3.286
313.15 K, x2 = 0.3991 | 882.64 | – | 3.251
313.15 K, x2 = 0.4998 | 871.61 | – | 3.235
313.15 K, x2 = 0.5995 | 860.15 | – | 3.275
313.15 K, x2 = 0.7 | 848.08 | – | 3.331
313.15 K, x2 = 0.8002 | 835.43 | – | 3.454
313.15 K, x2 = 0.9 | 822.17 | – | 3.589
318.15 K, x2 = 0 | 919.21 | – | 3.478
318.15 K, x2 = 0.0999 | 909.33 | – | 3.135
318.15 K, x2 = 0.1999 | 899.51 | – | 3.003
318.15 K, x2 = 0.2988 | 889.49 | – | 2.922
318.15 K, x2 = 0.3991 | 878.91 | – | 2.882
318.15 K, x2 = 0.4998 | 867.88 | – | 2.859
318.15 K, x2 = 0.5995 | 856.43 | – | 2.884
318.15 K, x2 = 0.7 | 844.37 | – | 2.919
318.15 K, x2 = 0.8002 | 831.75 | – | 3.012
318.15 K, x2 = 0.9 | 818.53 | – | 3.12
323.15 K, x2 = 0 | 915.62 | – | 3.134
323.15 K, x2 = 0.0999 | 905.62 | – | 2.811
323.15 K, x2 = 0.1999 | 895.76 | – | 2.687
323.15 K, x2 = 0.2988 | 885.74 | – | 2.608
323.15 K, x2 = 0.3991 | 875.17 | – | 2.569
323.15 K, x2 = 0.4998 | 864.13 | – | 2.54
323.15 K, x2 = 0.5995 | 852.69 | – | 2.555
323.15 K, x2 = 0.7 | 840.64 | – | 2.573
323.15 K, x2 = 0.8002 | 828.04 | – | 2.644
323.15 K, x2 = 0.9 | 814.85 | – | 2.728
328.15 K, x2 = 0 | 912.01 | – | 2.838
328.15 K, x2 = 0.0999 | 901.91 | – | 2.531
328.15 K, x2 = 0.1999 | 892.03 | – | 2.413
328.15 K, x2 = 0.2988 | 881.97 | – | 2.338
328.15 K, x2 = 0.3991 | 871.39 | – | 2.299
328.15 K, x2 = 0.4998 | 860.35 | – | 2.267
328.15 K, x2 = 0.5995 | 848.92 | – | 2.271
328.15 K, x2 = 0.7 | 836.88 | – | 2.28
328.15 K, x2 = 0.8002 | 824.29 | – | 2.333
328.15 K, x2 = 0.9 | 811.13 | – | 2.399
333.15 K, x2 = 0 | 908.41 | – | 2.581
333.15 K, x2 = 0.0999 | 898.19 | – | 2.291
333.15 K, x2 = 0.1999 | 888.26 | – | 2.178
333.15 K, x2 = 0.2988 | 878.19 | – | 2.106
333.15 K, x2 = 0.3991 | 867.59 | – | 2.066
333.15 K, x2 = 0.4998 | 856.55 | – | 2.033
333.15 K, x2 = 0.5995 | 845.11 | – | 2.03
333.15 K, x2 = 0.7 | 833.08 | – | 2.033
333.15 K, x2 = 0.8002 | 820.51 | – | 2.07
333.15 K, x2 = 0.9 | 807.38 | – | 2.121
